Experimental data: ChEMBL document CHEMBL1201862, “PubChem BioAssay data set” (2004)
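These data come from cells grown in 96-well plates and exposed to compound for 48 hours at five concentrations. Here, GI50 denotes the concentration required for 50% inhibition of growth.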 Active and inactive are the calls of the source. Cut-off read from the data, not from the text of the source: active = GI50 up to about 1.1 µM and inactive = higher.

Legend:
Assay in all cases: growth of human tumour cells (NCI), 48 h
[1] = tested on: SK-MEL-5
[2] = tested on: OVCAR-4
[3] = tested on: SK-MEL-28
[4] = tested on: U-251
[5] = tested on: NCI-H522
[6] = tested on: HOP-18
[7] = tested on: M14
[8] = tested on: TK-10
[9] = tested on: LXFL 529
[10] = tested on: HT-29
[11] = tested on: CCRF-CEM
[12] = tested on: ACHN
[13] = tested on: SK-OV-3
[14] = tested on: UO-31
[15] = tested on: LOX IMVI
[16] = tested on: Malme-3M
[17] = tested on: SF-268
[18] = tested on: SF-295
[19] = tested on: SN12C
[20] = tested on: DLD-1
[21] = tested on: NCI-H460
[22] = tested on: 786-0
[23] = tested on: SNB-78
[24] = tested on: NCI-H226
[25] = tested on: A549
[26] = tested on: DMS-273
[27] = tested on: UACC-62
[28] = tested on: SW-620
[29] = tested on: UACC-257
[30] = tested on: OVCAR-3
[31] = tested on: MOLT-4
[32] = tested on: HCT-15
[33] = tested on: KM12
[34] = tested on: OVCAR-8
[35] = tested on: SNB-75
[36] = tested on: NCI-H23
[37] = tested on: SF-539
[38] = tested on: HCT-116
[39] = tested on: XF498
[40] = tested on: IGROV-1
[41] = tested on: M19-MEL
[42] = tested on: HL-60
[43] = tested on: DMS-114
[44] = tested on: K562
[45] = tested on: SK-MEL-2

In the case of CC(Oc1ccc(OCC2CCCCC2)cc1)C(=O)O (stereo not given), the GI50 [1] is reported as > 100 µM (inactive), the GI50 [2] is reported as > 100 µM (inactive) and the GI50 [3] is reported as > 100 µM (inactive). The GI50 [4] was > 100 µM (inactive), the GI50 [5] was > 100 µM (inactive) and the GI50 [6] was > 100 µM (inactive). The GI50 [7] was > 100 µM (inactive), the GI50 [8] was > 100 µM (inactive) and the GI50 [9] was > 100 µM (inactive). For the same compound, the GI50 [10] was > 100 µM (inactive), the GI50 [11] was > 100 µM (inactive) and the GI50 [12] was > 100 µM (inactive). The GI50 [13] was > 100 µM (inactive), the GI50 [14] was > 100 µM (inactive) and the GI50 [15] was > 100 µM (inactive). For the same compound, the GI50 [16] was > 100 µM (inactive), the GI50 [17] was > 100 µM (inactive) and the GI50 [18] was > 100 µM (inactive). The GI50 [19] was > 100 µM (inactive), the GI50 [20] was > 100 µM (inactive) and the GI50 [21] was > 100 µM (inactive). The GI50 [22] was > 100 µM (inactive), the GI50 [23] was > 100 µM (inactive) and the GI50 [24] was > 100 µM (inactive). For the same compound, the GI50 [25] was > 100 µM (inactive), the GI50 [26] was > 100 µM (inactive) and the GI50 [27] was > 100 µM (inactive). For the same compound, the GI50 [28] was > 100 µM (inactive), the GI50 [29] was > 100 µM (inactive) and the GI50 [30] was > 100 µM (inactive). For the same compound, the GI50 [31] was > 100 µM (inactive), the GI50 [32] was > 100 µM and the GI50 [33] was > 100 µM (inactive). For the same compound, the GI50 [34] was > 100 µM (inactive), the GI50 [35] was > 100 µM (inactive) and the GI50 [36] was > 100 µM (inactive). The GI50 [37] was > 100 µM (inactive), the GI50 [38] was > 100 µM (inactive) and the GI50 [39] was > 100 µM (inactive). The GI50 [40] was > 100 µM (inactive), the GI50 [41] was > 100 µM (inactive) and the GI50 [42] was > 100 µM (inactive). For the same compound, the GI50 [43] was > 100 µM (inactive), the GI50 [44] was > 100 µM (inactive) and the GI50 [45] was > 100 µM (inactive).
